From PubChem BioAssay (NCI) come the findings set out here.

Structures are written as SMILES.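 Values below derive from 48-hour exposures of cells grown in 96-well plates, with endpoints linearly interpolated between the two concentrations bracketing the appropriate inhibition level. At the GI50, growth is halved. Definition used: TGI = concentration required for complete inhibition of growth.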 Where only a bound is given, the exact number is not on record here.

Among the test systems are RPMI-8226 leukemia; MALME-3M melanoma; NCI-H23 lung; A498 renal; K-562 leukemia; CAKI-1 renal; CCRF-CEM leukemia; HCT-116 colon; PC-3 prostate; HCC-2998 colon; HCT-15 colon; DU-145 prostate; SK-OV-3 ovarian; SF-295 CNS; NCI/ADR-RES ovarian; SK-MEL-5 melanoma; SF-268 CNS; 786-0 renal; SW-620 colon; M14 melanoma; OVCAR-4 ovarian; ACHN renal; OVCAR-5 ovarian; OVCAR-3 ovarian; HOP-92 NSCLC; BT-549 breast; SF-539 CNS; IGROV1 ovarian; UO-31 renal; TK-10 renal; SK-MEL-28 melanoma; MDA-MB-435; EKVX NSCLC.

Holding throughout (assay): NCI tumour cell line growth inhibition, 48 h

Regarding `C=CC1CN2CCC1CC2C(O)c1ccnc2ccc(OC)cc12` (stereo not drawn), the GI50 with RPMI-8226 leukemia is 53000 nM; in the assay on MALME-3M melanoma, greater than 100000 nM; in the assay with NCI-H23 lung it was greater than 100000 nM; in the assay on A498 renal, greater than 100000 nM. Besides, the TGI with RPMI-8226 leukemia, in the assay on MALME-3M melanoma, in the assay on NCI-H23 lung and with A498 renal was greater than 100000 nM throughout.
Turning to `C=CCN(CC=C)C(=O)[C@H](CC)[C@@H]1CC[C@@H](C)[C@@H]([C@H](C)[C@@H](O)[C@@H](C)C(=O)[C@H](CC)C2O[C@]3(C=CC(=O)[C@]4(CC[C@@](C)([C@H]5CC[C@](O)(CC)[C@H](C)O5)O4)O3)[C@H](C)C[C@@H]2C)O1` (stereo partly drawn), the GI50 with K-562 leukemia was 2310 nM; with CAKI-1 renal, 1960 nM; with CCRF-CEM leukemia, 2650 nM; in the assay on HCT-116 colon it was 2760 nM; in the assay with PC-3 prostate it was 2020 nM. In addition, the TGI in the assay with K-562 leukemia, in the assay on CAKI-1 renal, in the assay with CCRF-CEM leukemia, in the assay on HCT-116 colon and with PC-3 prostate was greater than 100000 nM each time.
Regarding `CCn1cc(C(=O)N/N=C/c2ccccc2)c(=O)c2cc(F)c(N3CCNC(C)C3)c(F)c21` (stereo not drawn), the GI50 is 1800 nM in the assay with HCC-2998 colon; 1450 nM with HCT-15 colon; 1880 nM with DU-145 prostate; 1810 nM in the assay with SK-OV-3 ovarian; 1830 nM in the assay with SF-295 CNS; 1760 nM with NCI/ADR-RES ovarian. The GI50 with CAKI-1 renal is 1750 nM; with SK-MEL-5 melanoma, 1760 nM; with SF-268 CNS it was 1960 nM; in the assay with 786-0 renal it was 1680 nM; in the assay with SW-620 colon, 1760 nM; in the assay on M14 melanoma, 1780 nM. Also, the GI50 is 2040 nM with OVCAR-4 ovarian; 1730 nM with ACHN renal; 1640 nM in the assay on OVCAR-5 ovarian; 1820 nM in the assay with OVCAR-3 ovarian; 1190 nM in the assay on HOP-92 NSCLC; 1600 nM in the assay on BT-549 breast. Besides, the GI50 in the assay on A498 renal is 1900 nM; with SF-539 CNS, 1700 nM; with IGROV1 ovarian, 1710 nM; with UO-31 renal, 1550 nM; in the assay on TK-10 renal, 1710 nM; with SK-MEL-28 melanoma, 1780 nM. Also, the GI50 in the assay on PC-3 prostate was 1600 nM; in the assay with MDA-MB-435, 1910 nM; with EKVX NSCLC, 1680 nM. The TGI was found to be 3320 nM with HCC-2998 colon; 2820 nM in the assay with HCT-15 colon; 3300 nM in the assay with DU-145 prostate; 3250 nM in the assay on SK-OV-3 ovarian; 3350 nM with SF-295 CNS; 3460 nM in the assay on NCI/ADR-RES ovarian. Besides, the TGI in the assay with CAKI-1 renal was 3140 nM; in the assay with SK-MEL-5 melanoma it was 3140 nM; in the assay on SF-268 CNS it was 3620 nM; in the assay on 786-0 renal, 3250 nM; in the assay on SW-620 colon it was 3310 nM; with M14 melanoma, 3260 nM. In addition, the TGI in the assay with OVCAR-4 ovarian worked out at 3620 nM; in the assay on ACHN renal, 3120 nM; with OVCAR-5 ovarian, 3050 nM; in the assay with OVCAR-3 ovarian it was 3300 nM; in the assay with HOP-92 NSCLC it was 2460 nM; in the assay with BT-549 breast it was 3000 nM. Further, the TGI stood at 3380 nM in the assay with A498 renal; 3110 nM in the assay on SF-539 CNS; 3200 nM in the assay on IGROV1 ovarian; 2890 nM in the assay with UO-31 renal; 3240 nM in the assay on TK-10 renal; 3190 nM in the assay with SK-MEL-28 melanoma. Also, the results for the TGI in the assay on PC-3 prostate, in the assay on MDA-MB-435 and in the assay on EKVX NSCLC were 3010 nM, 3360 nM and 3090 nM, respectively.
Turning to `COCCCC(NC(=O)C(CC(C)C)NC(=O)OCc1ccc(OC)cc1)C(N)=O` (stereo not drawn), the GI50 with OVCAR-4 ovarian was 47.2 µg/mL.
